Where “and” joins values, the source holds several entries; their conditions need not be identical. Identical values can stand only once. Inconclusive results and toxic doses are left out.

The test system of this assay is L1210 leukemia ip in BDF1 mice, survival T/C. Nature of the assay: NCI In Vivo Anticancer Drug Screen. Data for tumor model L1210 Leukemia (intraperitoneal) in B6D2F1 (BDF1) mice. Particulars: endpoint: mean survival time, higher = longer survival. A digest of the protocol: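 Antitumor effect is assessed in tumor-bearing animals. Survival in the compound arm is compared with a vehicle-dosed control arm and expressed as their quotient.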

The mark [1] stands for this setting: dose: 100.0 mg/kg/injection, schedule: Q01DX009 (ip), vehicle: saline with Tween-80.
[2] abbreviates: dose: 200.0 mg/kg/injection, schedule: Q01DX009 (ip), vehicle: saline with Tween-80.
Setting [3] is: dose: 400.0 mg/kg/injection, schedule: Q01DX009 (ip), vehicle: saline with Tween-80.
Where [4] appears, read: dose: 100.0 mg/kg/injection, schedule: Q01DX009 (ip), vehicle: Klucel (hydroxypropylcellulose) (HPC).
Where [5] appears, read: dose: 100.0 mg/kg/injection, schedule: Q04DX003 (ip), vehicle: Klucel (hydroxypropylcellulose) (HPC).
[6] abbreviates: dose: 200.0 mg/kg/injection, schedule: Q01DX009 (ip), vehicle: Klucel (hydroxypropylcellulose) (HPC).
[7] abbreviates: dose: 200.0 mg/kg/injection, schedule: Q04DX003 (ip), vehicle: Klucel (hydroxypropylcellulose) (HPC).
[8] abbreviates: dose: 100.0 mg/kg/injection, schedule: Q01DX001 (ip), vehicle: saline.
The mark [9] stands for this setting: dose: 200.0 mg/kg/injection, schedule: Q01DX001 (ip), vehicle: saline.
[10] abbreviates: dose: 400.0 mg/kg/injection, schedule: Q01DX001 (ip), vehicle: saline.
The mark [11] stands for this setting: dose: 400.0 mg/kg/injection, schedule: Q04DX003 (ip), vehicle: Klucel (hydroxypropylcellulose) (HPC).
[12] abbreviates: dose: 100.0 mg/kg/injection, schedule: Q01DX009 (ip), vehicle: saline.
[13] abbreviates: dose: 100.0 mg/kg/injection, schedule: Q01DX001 (ip), vehicle: Klucel (hydroxypropylcellulose) (HPC).
Where [14] appears, read: dose: 100.0 mg/kg/injection, schedule: Q04DX003 (ip), vehicle: saline.
The mark [15] stands for this setting: dose: 200.0 mg/kg/injection, schedule: Q04DX003 (ip), vehicle: saline.

Consider `COc1ccc(CCNC(=O)CCN2C(=O)c3ccccc3C2=O)cc1OC`, for which the T/C reads like this: under setting [1], 115 % of control; (dose: 100.0 mg/kg/injection, schedule: Q04DX003 (ip), vehicle: saline with Tween-80) 97 % of control; under setting [2], 115 % of control; (dose: 200.0 mg/kg/injection, schedule: Q04DX003 (ip), vehicle: saline with Tween-80) 100 % of control; under setting [3], 113 % of control; (dose: 400.0 mg/kg/injection, schedule: Q04DX003 (ip), vehicle: saline with Tween-80) 112 % of control.
For the compound `CN(C)Nc1ncnc2nc[nH]c12`, the T/C was 98 % of control (dose: 12.5 mg/kg/injection, schedule: Q01DX Z (ip), vehicle: carboxymethylcellulose (CMC)); 104 % of control (dose: 25.0 mg/kg/injection, schedule: Q01DX Z (ip), vehicle: carboxymethylcellulose (CMC)); 106 % of control and 115 % of control (dose: 50.0 mg/kg/injection, schedule: Q01DX Z (ip), vehicle: carboxymethylcellulose (CMC)); 102 % of control (dose: 75.0 mg/kg/injection, schedule: Q01DX001 (ip), vehicle: carboxymethylcellulose (CMC)); 114 % of control and 118 % of control (dose: 100.0 mg/kg/injection, schedule: Q01DX Z (ip), vehicle: carboxymethylcellulose (CMC)); 102 % of control (dose: 150.0 mg/kg/injection, schedule: Q01DX001 (ip), vehicle: carboxymethylcellulose (CMC)). For the same compound, the T/C (dose: 300.0 mg/kg/injection, schedule: Q01DX001 (ip), vehicle: carboxymethylcellulose (CMC)) was 110 % of control.
`Cc1cc(=O)[nH]c(N/N=C/c2ccco2)n1`: the T/C (dose: 50.0 mg/kg/injection, schedule: Q01DX009 (ip), vehicle: Klucel (hydroxypropylcellulose) (HPC)) is 96 % of control; the T/C under setting [4] is 96 % of control; the T/C under setting [5] is 87 % of control; the T/C under setting [6] is 95 % of control; the T/C under setting [7] was 90 % of control.
With `O=C1c2ccccc2S(=O)(=O)N1CC(O)COc1ccc(Cl)cc1` (configuration not stated), the T/C runs as follows: under setting [1], 93 % of control; under setting [2], 102 % of control; under setting [3], 101 % of control.
With `C=CCc1ccc2c(c1)OC(CO)CO2` (configuration not stated) (tested in a mixture with another compound), the T/C by setting is: under setting [8], 90 % of control; under setting [9], 93 % of control; under setting [10], 93 % of control.
Regarding `CCCCCCc1cc(OC(=O)c2ccccc2)ccc1OC(=O)c1ccccc1`, the T/C runs as follows: (dose: 50.0 mg/kg/injection, schedule: Q01DX001 (ip), vehicle: carboxymethylcellulose (CMC)) 94 % of control; (dose: 100.0 mg/kg/injection, schedule: Q01DX001 (ip), vehicle: carboxymethylcellulose (CMC)) 97 % of control; (dose: 200.0 mg/kg/injection, schedule: Q01DX001 (ip), vehicle: carboxymethylcellulose (CMC)) 89 % of control; (dose: 400.0 mg/kg/injection, schedule: Q01DX001 (ip), vehicle: carboxymethylcellulose (CMC)) 97 % of control.
Regarding `CC(C)(C)OC(=O)N/N=C/c1ccc2c(c1)OCO2`, the T/C was 95 % of control under setting [5], 97 % of control under setting [7] and 97 % of control under setting [11].
For `NC(=O)Nc1n[nH]c(-c2ccccc2)n1`, under setting [12], the T/C was 90 % of control.
`N#Cc1ccc(/C=C/C(=O)c2ccccc2)cc1`: the T/C was 95 % of control under setting [13]; 96 % of control under setting [4]; 88 % of control (dose: 200.0 mg/kg/injection, schedule: Q01DX001 (ip), vehicle: Klucel (hydroxypropylcellulose) (HPC)); 93 % of control under setting [6]; 89 % of control (dose: 400.0 mg/kg/injection, schedule: Q01DX009 (ip), vehicle: Klucel (hydroxypropylcellulose) (HPC)).
Turning to `Nc1nc(=S)c2ncn(C3OC(COC(=O)c4ccc(Cl)cc4)C(OC(=O)c4ccc(Cl)cc4)C3OC(=O)c3ccc(Cl)cc3)c2[nH]1` (configuration not stated), the T/C is 113 % of control (dose: 3.5 mg/kg/injection, schedule: Q01DX Z (ip), vehicle: carboxymethylcellulose (CMC)); 156 % of control (dose: 12.0 mg/kg/injection, schedule: Q01DX Z (ip), vehicle: carboxymethylcellulose (CMC)); 170 % of control (dose: 12.0 mg/kg/injection, schedule: Q01DX Z (ip), vehicle: saline); 115 % of control (dose: 19.0 mg/kg/injection, schedule: Q01DX Z (ip), vehicle: carboxymethylcellulose (CMC)); 150 % of control (dose: 44.0 mg/kg/injection, schedule: Q01DX Z (ip), vehicle: carboxymethylcellulose (CMC)); 114 % of control (dose: 50.0 mg/kg/injection, schedule: Q01DX Z (ip), vehicle: saline). In addition, the T/C (dose: 150.0 mg/kg/injection, schedule: Q01DX Z (ip), vehicle: carboxymethylcellulose (CMC)) was 108 % of control.
Consider `C[C@H]1CC[C@@H]2[C@@H](C)[C@H]3[C@H](C[C@H]4[C@@H]5CC=C6C[C@@H](O)CC[C@]6(C)[C@H]5C[C@H](O)[C@]34C)N2C1`, for which the T/C (dose: 100.0 mg/kg/injection, schedule: Q01DX001 (sc), vehicle: steriod suspending solution) was 100 % of control; the T/C (dose: 200.0 mg/kg/injection, schedule: Q01DX001 (sc), vehicle: steriod suspending solution) is 91 % of control; the T/C (dose: 400.0 mg/kg/injection, schedule: Q01DX001 (sc), vehicle: steriod suspending solution) was 91 % of control.
As to `CC(=O)OCC1(C[N+](C)(C)C)CCC1`, the T/C was 103 % of control under setting [8]; 95 % of control under setting [14]; 97 % of control under setting [9]; 94 % of control under setting [15]; 110 % of control under setting [10].
Turning to `NCCSC12CC3CC(CC(C3)C1)C2`, the T/C runs as follows: (dose: 100.0 mg/kg/injection, schedule: Q04DX002 (ip), vehicle: saline) 90 % of control; (dose: 200.0 mg/kg/injection, schedule: Q04DX002 (ip), vehicle: saline) 94 % of control; (dose: 400.0 mg/kg/injection, schedule: Q04DX002 (ip), vehicle: saline) 96 % of control.
As for `C/C(=N/O)c1c[n+]([O-])ccn1`, the T/C is 102 % of control under setting [12]; 94 % of control under setting [5]; 101 % of control under setting [14]; 94 % of control (dose: 200.0 mg/kg/injection, schedule: Q01DX009 (ip), vehicle: saline); 94 % of control under setting [7]; 98 % of control under setting [15]. The T/C by setting is: (dose: 400.0 mg/kg/injection, schedule: Q01DX009 (ip), vehicle: saline) 96 % of control; under setting [11], 100 % of control; (dose: 400.0 mg/kg/injection, schedule: Q04DX003 (ip), vehicle: saline) 102 % of control.
With `O=c1[nH]c(-c2cccc([N+](=O)[O-])c2)nc2[nH]ncc12`, the T/C was 94 % of control (dose: 25.0 mg/kg/injection, schedule: Q01DX001 (ip), vehicle: Klucel (hydroxypropylcellulose) (HPC)); 94 % of control (dose: 50.0 mg/kg/injection, schedule: Q01DX001 (ip), vehicle: Klucel (hydroxypropylcellulose) (HPC)); 98 % of control under setting [13].
As to `CC(NN)c1ccccc1` (configuration not stated), the T/C reads like this: (dose: 50.0 mg/kg/injection, schedule: Q01DX001 (ip), vehicle: saline) 101 % of control; under setting [8], 105 % of control.
Turning to `NCC(=O)Nc1ccc(S(=O)(=O)c2ccc(NC(=O)CN)cc2)cc1`, the T/C under setting [8] is 104 % of control, the T/C under setting [9] was 101 % of control and the T/C under setting [10] is 98 % of control.
Consider `O=S(=O)(Nc1nccs1)c1ccc(Nc2ccnc3cc(Cl)ccc23)cc1`, for which the T/C under setting [8] is 93 % of control, the T/C under setting [9] was 95 % of control and the T/C under setting [10] is 87 % of control.
For `COC(=O)c1cc(C)c(Br)c(OC)c1`, the T/C by setting is: under setting [4], 98 % of control; under setting [5], 94 % of control; under setting [6], 100 % of control; under setting [7], 111 % of control; under setting [11], 100 % of control.
In the case of `NC(CSS(=O)(=O)O)=NCCCC1CCCCC1`, the T/C reads like this: (dose: 6.25 mg/kg/injection, schedule: Q04DX002 (ip), vehicle: saline with Tween-80) 97 % of control; (dose: 12.5 mg/kg/injection, schedule: Q04DX002 (ip), vehicle: saline with Tween-80) 101 % of control.

Source of the values: PubChem BioAssay AID248 (DTP/NCI, 2004).
